# Laboratory results reported in PMC6696115, “Characterization of Antimicrobial, Antioxidant, and Leishmanicidal Activities of Schiff Base Derivatives of 4-Aminoantipyrine” (Molecules, 2019).
# Like-named read-outs stand apart in the source and are kept apart here.
# Assays:
# [1] = carcinogenicity group; ref IARC; cited from earlier work
# [2] = tested on: S. cerevisiae (backgrounds W303 and BY4741); assay: antimicrobial serial microdilution, S. cerevisiae; assay type: cell-based, Saccharomyces cerevisiae; settings: 48 h; for IC50 / MIC: Saccharomyces cerevisiae; for MIC: read-out: MIC S. cerevisiae; for NIC S. cerevisiae: noninhibitory concentration
# Method: (§1) The in vitro antifungal and antimicrobial activities were determined by testing the Schiff bases against the fungi Saccharomyces cerevisiae, Candida albicans, and Aspergillus niger and the bacteria Staphylococcus aureus, Enterococcus faecalis (Gram-positive), Pseudomonas aeruginosa, and Escherichia coli (Gram-negative).
# (§2) The bacterial inoculum was prepared by emulsifying overnight colonies from an agar medium in broth (Mueller–Hinton broth). The suspensions were adjusted to a final organism density of 5 × 10^5 colony former units (cfu)/mL. […] The emulsifying of A. niger cultures was done by pouring 5 mL of saline and 0.1% of polysorbate 80 over the Petri dishes. Then, 100 µL of this suspension were diluted in 5 mL of saline and adjusted to an optical density of 0.1 at 530 nm. For S. cerevisiae, fresh exponential YPAD (yeast extract 1%, peptone 2%, adenine 0.004%, […]) cultures were adjusted to an optical density of 0.5 at 600 nm, and then diluted to the equivalent of 1 × 10^4 cells/mL (10^−3 dilution). Stock solutions of Schiff bases were prepared by dissolving them in DMSO at 10 mg/mL. […] The range of concentrations used was empirically selected for each organisms and the Schiff base. Drug sensitivities were assayed by serial dilutions in 96-well plates as previously described. A row with media and cells but without drug was the positive control. The blank was done by preparing a row with media and drugs, but without cells. Plates were fitted with a tight lid before incubation to prevent desiccation. […] The minimum bactericidal concentration (MBC) and fungicidal concentration (MFC) were determined by spreading 100 µL of culture from each well onto a plate (Mueller–Hinton agar for bacteria, Sabouraud dextrose agar for fungi except S. cerevisiae, and YPAD for S. cerevisiae).
# [3] = tested on: Aspergillus niger ATCC 6275; assay: antimicrobial serial microdilution, A. niger; assay type: cell-based; settings: serial microdilution, 35 °C, 48 h; for MIC: 96-well plates, max 2% DMSO
# Method: as §1, §2
# [4] = tested on: Candida albicans ATCC 10231; assay: antimicrobial serial microdilution, C. albicans; assay type: cell-based; settings: serial microdilution, 35 °C, 48 h
# Method: as §1, §2
# [5] = tested on: promastigotes from L. mexicana (M379); assay: leishmanicidal activity, MTT colorimetric assay; assay type: cell-based; settings: Leishmania mexicana, 48 h exposure, 1% DMSO
# Method: Leishmanicidal activities of all Schiff bases were evaluated by measuring promastigote mitochondrial activity using MTT colorimetric assay as described previously. […] The medium was renewed every four days. Parasite density was determined in a Neubauer chamber.
# Into each well of a 96-well cell culture dish was dispensed 1 × 10^6 parasites. A stock solution of each of the Schiff Base was prepared in DMSO, and serial dilutions were added to the parasite suspension, keeping the solvent concentration at 1%. The final volume was 100 µL for each well and triplicate conditions were carried out. Pentamidine treatment (100 µg/mL) and untreated parasites were used as positive control and negative control, respectively. After exposure to the compounds for 48 h in culture medium, 10 µL of a solution of 5 mg/mL MTT dissolved in PBS was added to each well. […] Later, the plate was centrifuged at 4400 rpm for 10 min and the culture medium was then aspirated. Next, 100 µL of DMSO were added into each well to solubilize the formazan and the plate was shaken for 5 min. The colored formazan salt was measured by recording changes in absorbance at 570 nm using a microplate reader, a BioTek Synergy HT spectrophotometer. A reference wavelength of 630 nm was used to subtract background. Optical densities were analyzed as the quantity of formazan is directly proportional to the number of viable parasites. Data were analyzed with the statistical software GraphPad Prism.
# [6] = DPPH radical scavenging assay; assay type: biochemical; settings: 30 min, room temperature, dark, absorbance 515 nm
# Method: This was used immediately. The experimental procedure was adapted from the literature. Briefly, in a 96-well plate, 100 µL of solution of DPPH (2, 2-diphenyl-1-picrylhydrazyl) radical (0.2 mM in methanol) was added to 100 µL of methanolic solutions of 3a–j, 4, or 5, prepared as serial two-fold dilutions from the stock solution. Standards were also prepared in the same concentrations.
# The percentage of DPPH scavenging was then calculated by using the following formula: % DPPH scavenging=100∗Asample+DPPH−Asample blank/ADPPH−Asolvent
# [7] = tested on: Staphylococcus aureus ATCC 29213; assay: antimicrobial serial microdilution, S. aureus; assay type: cell-based; settings: serial microdilution, 37 °C, 24 h
# Method: as §1, §2
# [8] = tested on: Escherichia coli ATCC 25922; assay: antimicrobial serial microdilution, E. coli; assay type: cell-based; settings: serial microdilution, 37 °C, 24 h
# Method: as §1, §2
# P. aeruginosa ATCC 27853 = assay: antimicrobial serial microdilution, P. aeruginosa; assay type: cell-based; settings: Pseudomonas aeruginosa, ATCC27853, 37 °C, 24 h
# Method: as §1, §2
# RAW 264.7 cells = assay: cell viability, MTT dye assay; assay type: cell-based, murine; settings: 48 h
# Method: The specificity and selectivity for the pathogen target is a key point for any potential drug.
# The medium was renewed once a week. The viability was determined using MTT (thiazolyl blue tetrazolium bromide) dye assay as described previously for leishmanicidal activity assessment, with some variations. Here, 5 × 10^4 cells/well in a final volume of 100 µL were deposited into a 96-well plate in triplicate. Saponin (2 and 4 mg/mL) and untreated cells were used as the positive control and negative control, respectively. Schiff bases were dissolved in DMSO to obtain different serial concentrations (0.01–2000 µM). […] Cells were pelleted by centrifugation at 4400 rpm for 10 minutes and the media was removed. Next, 100 µL/well of DMSO were added and the absorbance at 570 nm was recorded. A reference wavelength of 630 nm was used for background subtraction.
# [9] = tested on: Enterococcus faecalis ATCC 29212; assay: antimicrobial serial microdilution, E. faecalis; assay type: cell-based; settings: serial microdilution, 37 °C, 24 h
# Method: as §1, §2
# [10] = Staphylococcus aureus, ATCC29213
# [11] = Enterococcus faecalis, ATCC29212
structure (smiles),measurement,setting,value
Cc1c(N)nc([C@H](CC(N)=O)NC[C@H](N)C(N)=O)nc1C(=O)N[C@H](C(=O)N[C@H](C)[C@@H](O)[C@H](C)C(=O)N[C@H](C(=O)NCCc1nc(-c2nc(C(=O)NCCC[S+](C)C)cs2)cs1)[C@@H](C)O)[C@@H](OC1OC(CO)C(O)C(O)C1OC1OC(CO)C(O)C(OC(N)=O)C1O)c1cnc[nH]1 (stereo partly shown) [Bleomycin],IARC: group of classification of IARC,[1],2B
O=c1[nH]cc(F)c(=O)[nH]1 [Fluorouracil],IARC: group of classification of IARC,[1],3
N.N.[Cl][Pt][Cl] [Cisplatin],IARC: group of classification of IARC,[1],2A
"CN[C@@H]1[C@@H](O)[C@@H](O[C@@H]2[C@@H](O)[C@H](O[C@H]3O[C@H]([C@@H](C)O)[C@@H](O)[C@H](O)[C@H]3N)[C@@H](N)C[C@H]2N)OC[C@]1(C)O [GN, geneticin, reference compound]",IC50,[2]; read-out: IC50 S. cerevisiae,59.9 µg/mL
same,MIC,[2],93.7 ± 0.9 µg/mL
same,NIC S. cerevisiae,"[2]; serial microdilution, 35 °C",44.5 ± 1.7 µg/mL
O=P1(N(CCCl)CCCl)NCCCO1 (stereo not shown) [Cyclophosphamide],IARC: group of classification of IARC,[1],1
COc1cc([C@@H]2c3cc4c(cc3[C@@H](O[C@@H]3O[C@@H]5CO[C@@H](C)O[C@H]5[C@H](O)[C@H]3O)[C@H]3COC(=O)[C@H]23)OCO4)cc(OC)c1O [Etoposide],IARC: group of classification of IARC,[1],1
"C[C@@H](c1ncncc1F)[C@](O)(Cn1cncn1)c1ccc(F)cc1F [VR, voriconazole, reference compound]",IC50,"[3]; Aspergillus niger, ATCC6275",0.2 µg/mL
same,MIC,"[3]; Aspergillus niger, ATCC6275",1.2 ± 0.05 µg/mL
same,NIC A. niger,[3]; noninhibitory concentration,0.05 ± 0.01 µg/mL
same,IC50,"[4]; Candida albicans, ATCC10231",0.9 µg/mL
same,MIC,"[4]; Candida albicans, ATCC10231",29.7 ± 3.52 µg/mL
same,NIC C. albicans,[4]; noninhibitory concentration,0.00 ± 0.00 µg/mL
"C[C@@H]1[C@H](O)[C@@H](C)/C=C/C=C/C=C/C=C/C=C/C=C/C=C/[C@H](O[C@@H]2O[C@H](C)[C@@H](O)[C@H](N)[C@@H]2O)C[C@@H]2O[C@](O)(C[C@@H](O)C[C@@H](O)[C@H](O)CC[C@@H](O)C[C@@H](O)CC(=O)O[C@H]1C)C[C@H](O)[C@H]2C(=O)O [AP, amphotericin, reference compound]",IC50,[5],0.18 ± 0.07 µM
"N=C(N)c1ccc(OCCCCCOc2ccc(C(=N)N)cc2)cc1 [PT, pentamidine, reference compound]",IC50,[5],4.5 ± 0.46 µM
"O=c1c(O)c(-c2ccc(O)c(O)c2)oc2cc(O)cc(O)c12 [quercetin, reference compound]",IC50,[6],7.3 ± 1 µM
"Cc1c(N=Cc2ccc(O)c(O)c2)c(=O)n(-c2ccccc2)n1C [Compound 3i, 4-(3,4-Dihydroxybenzylideneamino)-1,5-dimethyl-2-phenyl-1H-pyrazol-3(2H)-one]",MIC,"[3]; Aspergillus niger, ATCC6275",> 200 µg/mL
same,IC50,[5],> 200 µM
same,MIC,"[4]; Candida albicans, ATCC10231",> 200 µg/mL
same,MIC,[7]; [10],> 200 µg/mL
same,IC50,[6],18.9 ± 2.4 µM
same,MIC,"[8]; Escherichia coli, ATCC25922",> 200 µg/mL
same,MIC,"[2]; serial microdilution, 35 °C",> 200 µg/mL
same,MIC,P. aeruginosa ATCC 27853,> 200 µg/mL
same,% Live Cells,"RAW 264.7 cells; RAW 264.7, exposure to 400 µM",34.4 ± 2.4%
same,MIC,[9]; [11],> 200 µg/mL
"Cc1c(/N=C/c2ccco2)c(=O)n(-c2ccccc2)n1C [Compound 4, 4-(2-furfurilideneamino)-1,5-dimethyl-2-phenyl-1H-pyrazol-3(2H)-one]",MIC,"[3]; Aspergillus niger, ATCC6275",> 200 µg/mL
same,IC50,[5],> 200 µM
same,MIC,"[4]; Candida albicans, ATCC10231",> 200 µg/mL
same,MIC,[7]; [10],> 200 µg/mL
same,IC50,[6],> 200 µM
same,MIC,"[8]; Escherichia coli, ATCC25922",> 200 µg/mL
same,MIC,"[2]; serial microdilution, 35 °C",> 200 µg/mL
same,MIC,P. aeruginosa ATCC 27853,> 200 µg/mL
same,% Live Cells,"RAW 264.7 cells; RAW 264.7, exposure to 400 µM",23.8 ± 3.4%
same,MIC,[9]; [11],> 200 µg/mL
"COc1ccc(C=Nc2c(C)n(C)n(-c3ccccc3)c2=O)cc1 [Compound 3c, 4-(4-Methoxybenzylideneamino)-1,5-dimethyl-2-phenyl-1H-pyrazol-3(2H)-one]",MIC,"[3]; Aspergillus niger, ATCC6275",> 200 µg/mL
same,IC50,[5],> 200 µM
same,MIC,"[4]; Candida albicans, ATCC10231",> 200 µg/mL
same,MIC,[7]; [10],> 200 µg/mL
same,IC50,[6],> 200 µM
same,MIC,"[8]; Escherichia coli, ATCC25922",> 200 µg/mL
same,MIC,"[2]; serial microdilution, 35 °C",> 200 µg/mL
same,MIC,P. aeruginosa ATCC 27853,> 200 µg/mL
same,% Live Cells,"RAW 264.7 cells; RAW 264.7, exposure to 400 µM",26.1 ± 1.9%
same,MIC,[9]; [11],> 200 µg/mL
"O=C(O)/C=C/c1ccc(O)c(O)c1 [caffeic acid, reference compound]",IC50,[6],16.2 ± 2.4 µM
"Cc1c(N=Cc2cccc([N+](=O)[O-])c2)c(=O)n(-c2ccccc2)n1C [Compound 3g, 4-(3-Nitrobenzylideneamino)-1,5-dimethyl-2-phenyl-1H-pyrazol-3(2H)-one]",MIC,"[3]; Aspergillus niger, ATCC6275",> 200 µg/mL
same,IC50,[5],> 200 µM
same,MIC,"[4]; Candida albicans, ATCC10231",> 200 µg/mL
same,MIC,[7]; [10],> 200 µg/mL
same,IC50,[6],> 200 µM
same,MIC,"[8]; Escherichia coli, ATCC25922",> 200 µg/mL
same,IC50,"[2]; serial microdilution, 35 °C, read-out: IC50 S. cerevisiae (converted)",105 µg/mL
same,MIC,"[2]; serial microdilution, 35 °C",179 ± 59.5 µg/mL
same,NIC S. cerevisiae,"[2]; serial microdilution, 35 °C",63.7 ± 8.7 µg/mL
same,MIC,P. aeruginosa ATCC 27853,> 200 µg/mL
same,% Live Cells,"RAW 264.7 cells; RAW 264.7, exposure to 300 µM (limited solubility)",22.1 ± 0.6%
same,MIC,[9]; [11],> 200 µg/mL
CN(Cc1cnc2nc(N)nc(N)c2n1)c1ccc(C(=O)N[C@@H](CCC(=O)O)C(=O)O)cc1 [Methotrexate],IARC: group of classification of IARC,[1],3
"O=C(O)c1cn(C2CC2)c2cc(N3CCNCC3)c(F)cc2c1=O [CP, ciprofloxacin, reference compound]",IC50,[7]; [10],0.1 µg/mL
same,MIC,[7]; [10],0.44 ± 0.09 µg/mL
same,NIC S. aureus,[7]; noninhibitory concentration,0.06 ± 0.02 µg/mL
same,IC50,"[8]; Escherichia coli, ATCC25922",0.07 µg/mL
same,MIC,"[8]; Escherichia coli, ATCC25922",0.15 ± 0.009 µg/mL
same,NIC E. coli,[8]; noninhibitory concentration,0.06 ± 0.003 µg/mL
same,IC50,P. aeruginosa ATCC 27853,0.94 µg/mL
same,MIC,P. aeruginosa ATCC 27853,0.47 ± 0.1 µg/mL
same,IC50,[9]; [11],0.49 µg/mL
same,MIC,[9]; [11],1.15 ± 0.42 µg/mL
same,NIC E. faecalis,[9]; noninhibitory concentration,0.30 ± 0.07 µg/mL
"O=C1O[C@H]([C@@H](O)CO)C(O)=C1O [ascorbic acid, reference compound]",IC50,[6],14.5 ± 2.2 µM
